In patent US20040255959A1, “Method and compounds to decrease the incidence of atrial fibrillation (AF) in patients with left ventricular dysfunction” (priority 2003, published 2004):

Key:
[1] = system: patients shortly after an acute myocardial infarction with depressed LV function; conditions: trandolapril versus placebo, 2-4 years of follow-up in TRACE; cited from earlier work
[2] = system: patients with persistent AF; conditions: started 3 weeks before electrical cardioversion and combined with amiodarone; cited from earlier work
[3] = system: atrial refractory period during rapid atrial pacing; conditions: in vivo; cited from earlier work
[4] = system: patients with left ventricular dysfunction; experiment: Retrospective analysis of Montreal Heart Institute patients randomized in SOLVD: development of atrial fibrillation, enalapril versus placebo; format: in vivo, human
Description: The patients of the Montreal Heart Institute who were enrolled in the SOLVD trials constituted the study population. SOLVD was a multicenter, double-blinded, randomized, placebo-controlled trial which evaluated the effect of the ACEi enalapril on survival in patients with left ventricular (LV) dysfunction (ejection fraction≦35%).^12,13 The design of the study has been reported previously.^13 Briefly, from June 1986 to August 1991, 4228 patients with asymptomatic or mildly symptomatic (not requiring treatment with digitalis, diuretics or vasodilators for heart failure at study entry) LV dysfunction (LVEF≦0.35) were included in the prevention trial and 2569 patients with overt congestive HF in the treatment trial.^14 Patients were randomized to enalapril (5-20 mg/day) or placebo. Exclusion criteria included: age>80 years, unstable angina, myocardial infarction in the previous month, severe pulmonary disease, renal insufficiency (creatinine level>[…]), current ACEi use or intolerance to ACEi. Follow-up visits were scheduled 2 and 6 weeks after randomization and every 4 months until the end of the study, for a mean follow-up of 3.4 and 3.1 years for the treatment and prevention trials, respectively.
Baseline characteristics, past medical history and drug therapy at the time of enrolment were obtained from the SOLVD databases. Serial electrocardiograms (ECG) were not collected specifically for the SOLVD trials. However, the routine clinical follow-up of patients at our institution usually included a 12-lead ECG. Thus, the medical file of each patient was carefully reviewed and a single experienced cardiologist, blinded to treatment allocation, interpreted every ECG.
AF was defined as rapid oscillations or fibrillatory waves that vary in size, shape and timing, associated with an irregular, frequently rapid ventricular response. For the purposes of the study, paroxysmal AF was defined as episodes in which the patient reverted to sinus rhythm spontaneously, with medical therapy orwith a single cardioversion, whereas patients who remained in AF despite changes in medical therapy and/or cardioversion were defined as persistent AF. Episodes occurring during a 24-hour Holter monitoring were also considered. The end-points were the development and time to first occurrence of AF on either one 12-lead ECG and/or a 24-hour Holter monitoring recorded during any available follow-up visits (including research, outpatient clinic or emergency room visits). Participants with significant supraventricular arrhythmia on the baseline ECG (AF or flutter) were excluded. Patients with a history of arrhythmia (either supraventricular or ventricular) but who were in sinus rhythm on the ECG at the time of randomization were included.
The baseline characteristics of the two groups were compared using student t-test for continuous variables and chi-square test for categorical variables. The incidence of AF between the two groups was compared with the chi-square test. Time to the first occurrence of AF during the follow-up was analyzed with Kaplan-Meier curves and compared with the log-rank test. To analyze the effect of enalapril on development of AF, a Cox regression analysis was used to take into account the effect of potential confounding baseline variables (age, sex, NYHA class, history of supraventricular or ventricular arrhythmia, ischemic etiology, diabetes and ejection fraction) and time-dependent variables (systolic blood pressure, diastolic blood pressure, pulse pressure, serum potassium and drug therapy). Cox proportional-hazard models were performed for each variable with treatment (enalapril) forced in all models. Variables with a p-value≦0.2 were included in a multivariate Cox proportional hazard model.
Subgroup analysis was conducted with chi-square test. Preliminary assumptions were verified prior to all analysis. A p-value≦0.05 was considered statistically significant. […]

[5] = system: animals with HF induced by rapid ventricular pacing; conditions: given at the onset of pacing, animals followed for 5 weeks; cited from earlier work
[6] = patients with AF in enalapril group, n = 10

CCOC(=O)[C@H](CCc1ccccc1)N[C@@H](C)C(=O)N1[C@H](C(=O)O)C[C@H]2CCCC[C@@H]21 [trandolapril]
absolute risk reduction on the incidence of AF [1]: 2.5%

CCCCC1=NC2(CCCC2)C(=O)N1Cc1ccc(-c2ccccc2-c2nnn[nH]2)cc1 [irbesartan]
effect on AF recurrence [2]: beneficial effect

C[C@H](CS)C(=O)N1CCC[C@H]1C(=O)O [captopril]
shortening of the atrial refractory period during rapid atrial pacing [3]: prevented

CCOc1nc2cccc(C(=O)O)c2n1Cc1ccc(-c2ccccc2-c2nnn[nH]2)cc1 [candesartan]
shortening of the atrial refractory period during rapid atrial pacing [3]: prevented

CCOC(=O)[C@H](CCc1ccccc1)N[C@@H](C)C(=O)N1CCC[C@H]1C(=O)O [enalapril]
patients presenting ≥1 episode of AF ([4]; 2.9 years of follow-up, enalapril group n = 186, 5-20 mg/day, placebo 45): 10 patients
patients presenting ≥1 episode of AF (percentage) ([4]; 2.9 years of follow-up, enalapril group n = 186, placebo 24%, p<0.001): 5.4%
probability of remaining in sinus rhythm during follow-up ([4]; Kaplan-Meier, enalapril versus placebo, p<0.0001, FIG. 1): significantly higher
Hazard ratio for incidence of AF, Cox multivariate analysis ([4]; allocation to enalapril, 95% CI 0.11-0.44, p<0.0001): 0.22
risk of developing AF in patients with LV dysfunction ([4]; chronic ACEi therapy with enalapril): markedly reduces
absolute risk reduction of AF ([4]; enalapril versus placebo, 2.9 years of follow-up): 18.6%
patients developing AF (percentage), patients with a history of supraventricular arrhythmia excluded ([4]; n=21 excluded, placebo 23%, p<0.0001): 4.5%
patients developing AF, patients with a history of supraventricular arrhythmia excluded ([4]; n=21 excluded, placebo 40 patients): 8 patients
AF Detection: 12-leads ECG (number) [4, 6]: 10
AF Detection: 12-leads ECG (percentage) [4, 6]: 100%
AF Detection: Holter monitoring (number) [4, 6]: 0 (0%)
AF Detection: Holter monitoring (percentage) [4, 6]: 0 (0%)
AF Requiring: electrical cardioversion (number) [4, 6]: 1
AF Requiring: electrical cardioversion (percentage) [4, 6]: 10%
AF Requiring: hospitalization (number) [4, 6]: 8
AF Requiring: hospitalization (percentage) [4, 6]: 80%
Paroxysmal AF (number) [4, 6]: 8
Paroxysmal AF (percentage) [4, 6]: 80%
Persistent AF (number) [4, 6]: 2
Persistent AF (percentage) [4, 6]: 20%
patients developing AF, SOLVD prevention arm ([4]; prevention arm (251 patients), placebo 31 patients): 4 patients
patients developing AF (percentage), SOLVD prevention arm ([4]; prevention arm, placebo 24.6%, p<0.0001): 3.2%
patients with CHF needed to be treated to prevent one episode of AF ([4]; treated for 2.9 years): 5 patients
patients developing AF, SOLVD treatment arm ([4]; treatment arm (123 patients), placebo 14): 6 patients
patients developing AF (percentage), SOLVD treatment arm ([4]; treatment arm, placebo 22.6%, P=0.055): 9.8%
atrial fibrosis [5]: significant reduction
atrial structural changes in HF induced by rapid ventricular pacing [5]: attenuated
vulnerability of the animals to AF [5]: decreased vulnerability
